Assay results: US20250215030A1, “STAT MODULATORS AND USES THEREOF” (Recludix Pharma, Inc., priority 2022, published 2025)

Legend:
[1] = target: T1, Recombinant STAT3 protein (STAT3(G127-I722)) (Homo sapiens, UniProt P40763); experiment: STAT3 Fluorescence Polarization (FP) Assay; format: binding; details: STAT3(G127-I722) 25 nM, probe 5-FAM-GpYLPQTV-NH2 2 nM, 45-minute incubation
T1 construct: STAT3(G127-I722)
Method in brief: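 STAT3(G127-I722) at 25 nM and 5-FAM-GpYLPQTV-NH2 probe at 2 nM in HEPES pH 7.4 buffer with NaCl, EDTA, Tween 20, DTT; 1% DMSO. FP read after 45 min at room temperature; IC50 by nonlinear regression of mP vs log concentration, binned A ≤100 nM to D >10 μM.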

[2] = target: T2, Recombinant STAT6 protein (STAT6(W123-T658)) (Homo sapiens, UniProt P42226); experiment: STAT6 Fluorescence Polarization (FP) Assay; format: binding; details: STAT6(W123-T658) 250 nM, probe 5-FAM-ApYKPFQDLI-NH2 2 nM, 45-minute incubation
T2 construct: STAT6(W123-T658)
T2 sequence (P42226 123-658): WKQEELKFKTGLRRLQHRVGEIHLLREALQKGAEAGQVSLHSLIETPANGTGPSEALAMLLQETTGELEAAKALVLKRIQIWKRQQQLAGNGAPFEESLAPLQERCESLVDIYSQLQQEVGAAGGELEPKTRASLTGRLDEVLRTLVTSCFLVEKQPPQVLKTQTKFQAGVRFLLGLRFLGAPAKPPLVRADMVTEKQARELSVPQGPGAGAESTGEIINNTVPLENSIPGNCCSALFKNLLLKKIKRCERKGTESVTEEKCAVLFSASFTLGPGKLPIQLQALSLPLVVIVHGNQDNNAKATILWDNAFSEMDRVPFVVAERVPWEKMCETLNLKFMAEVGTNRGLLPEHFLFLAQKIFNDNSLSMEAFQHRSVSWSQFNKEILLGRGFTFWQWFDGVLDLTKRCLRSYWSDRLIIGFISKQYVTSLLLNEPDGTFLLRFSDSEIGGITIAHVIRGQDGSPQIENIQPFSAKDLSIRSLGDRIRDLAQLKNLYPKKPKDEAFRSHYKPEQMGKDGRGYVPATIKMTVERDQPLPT
Method in brief: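 STAT6 (W123-T658) at 250 nM mixed with 2 nM 5-FAM-ApYKPFQDLI-NH2 probe in HEPES pH 7.4 buffer with DTT and Tween 20, 1% DMSO final. Polarization read after 45 min at room temperature; IC50 by nonlinear regression of mP versus log concentration, reported in bins A–D.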

T1 sequence (P40763 127-722, species assumed): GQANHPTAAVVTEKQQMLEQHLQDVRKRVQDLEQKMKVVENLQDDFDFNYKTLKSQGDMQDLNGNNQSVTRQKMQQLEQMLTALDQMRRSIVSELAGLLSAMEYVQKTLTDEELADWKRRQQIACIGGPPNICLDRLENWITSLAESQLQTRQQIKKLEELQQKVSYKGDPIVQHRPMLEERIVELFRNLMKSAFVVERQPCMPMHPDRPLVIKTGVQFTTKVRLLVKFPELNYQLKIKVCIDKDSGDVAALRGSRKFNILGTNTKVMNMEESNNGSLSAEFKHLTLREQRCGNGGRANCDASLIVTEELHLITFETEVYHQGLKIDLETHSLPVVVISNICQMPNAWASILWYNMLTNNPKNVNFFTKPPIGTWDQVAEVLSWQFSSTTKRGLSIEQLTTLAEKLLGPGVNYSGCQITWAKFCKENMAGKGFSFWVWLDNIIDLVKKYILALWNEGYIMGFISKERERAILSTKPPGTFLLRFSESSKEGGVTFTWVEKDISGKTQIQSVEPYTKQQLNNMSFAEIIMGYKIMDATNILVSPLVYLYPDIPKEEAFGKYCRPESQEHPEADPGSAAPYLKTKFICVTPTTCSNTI

Structure (SMILES) | IC50 [1] [µM] | IC50 [2] [µM]
Cc1ccc2c(c1)OCCN2C(=O)[C@@H]1CC[C@@H]2C[C@H]3C[C@H]3C[C@H](NC(=O)c3cc4cc(C(F)P(=O)(O)O)ccc4s3)C(=O)N21 (stereo partly drawn) [Example 383, (fluoro(2-(((3S,6S,7aS,8aR,9aR)-3-(7-methyl-3,4-dihydro-2H-benzo[b][1,4]oxazine-4-carbonyl)-5-oxodecahydro-1H-cyclopropa[d]pyrrolo[1,2-a]azocin-6-yl)carbamoyl)benzo[b]thiophen-5-yl)methyl)phosphonic acid] | 1 to 10 | 0.3 to 3
CC(=O)N1C[C@H](NC(=O)[C@@H]2CC[C@@H]3C[C@H]4C[C@H]4C[C@H](NC(=O)c4cc5cc(C(F)(F)P(=O)(O)O)ccc5s4)C(=O)N32)[C@@H](O)C1 [Example 9, ((2-(((3S,6S,7aS,8aR,9aR)-3-(((3S,4S)-1-acetyl-4-hydroxypyrrolidin-3-yl)carbamoyl)-5-oxodecahydro-1H-cyclopropa[d]pyrrolo[1,2-a]azocin-6-yl)carbamoyl)benzo[b]thiophen-5-yl)difluoromethyl)phosphonic acid] | 0.1 to 1 | 0.3 to 3
O=C(N[C@H]1C[C@H]2C[C@H]2C[C@H]2CC[C@@H](C(=O)N3CC(c4cnccc4F)C3)N2C1=O)c1cc2cc(CP(=O)(O)O)ccc2s1 [Example 250, ((2-(((3S,6S,7aR,8aS,9aR)-3-(3-(4-fluoropyridin-3-yl)azetidine-1-carbonyl)-5-oxodecahydro-1H-cyclopropa[d]pyrrolo[1,2-a]azocin-6-yl)carbamoyl)benzo[b]thiophen-5-yl)methyl)phosphonic acid] | < 0.1 | 3 to 30
CS(=O)(=O)CC1CN(C(=O)[C@@H]2CC[C@@H]3C[C@H]4C[C@H]4C[C@H](NC(=O)c4cc5cc(C(F)P(=O)(O)O)ccc5s4)C(=O)N32)C1 (stereo partly drawn) [Example 333, (fluoro(2-(((3S,6S,7aS,8aR,9aR)-3-(3-((methylsulfonyl)methyl)azetidine-1-carbonyl)-5-oxodecahydro-1H-cyclopropa[d]pyrrolo[1,2-a]azocin-6-yl)carbamoyl)benzo[b]thiophen-5-yl)methyl)phosphonic acid] | < 0.1 | 3 to 30
O=C(N[C@H]1C[C@@H]2C[C@@H]2C[C@H]2CC[C@@H](C(=O)N3CCC34CCCCC4)N2C1=O)c1cc2cc(C(F)P(=O)(O)O)ccc2s1 (stereo partly drawn) [Example 388, (fluoro(2-(((3S,6S,7aS,8aR,9aR)-5-oxo-3-(1-azaspiro[3.5]nonane-1-carbonyl)decahydro-1H-cyclopropa[d]pyrrolo[1,2-a]azocin-6-yl)carbamoyl)benzo[b]thiophen-5-yl)methyl)phosphonic acid] | 1 to 10 | 3 to 30
O=C(N[C@H]1C[C@@H]2C[C@@H]2C[C@H]2CC[C@@H](C(=O)N3CC(c4ccccn4)C3)N2C1=O)c1cc2cc(C(F)(F)P(=O)(O)O)ccc2s1 [Compound 97, (difluoro(2-(((3S,6S,7aS,8aR,9aR)-5-ox0-3-(3-(pyridin-2-yl)azetidine-1-carbonyl)decahydro-1H-cyclopropa[d]pyrrolo[1,2-a]azocin-6-yl)carbamoyl)benzo[b]thiophen-5-yl)methyl)phosphonic acid] | < 0.1 | 3 to 30
O=C(N[C@H]1C[C@@H]2C[C@@H]2C[C@H]2CC[C@@H](C(=O)N3CC4C3CCN4c3cccnc3)N2C1=O)c1cc2cc(CP(=O)(O)O)ccc2s1 (stereo partly drawn) [Example 275, ((2-(((3S,6S,7aS,8aR,9aR)-5-oxo-3-(2-(pyridin-3-yl)-2,6-diazabicyclo[3.2.0]heptane-6-carbonyl)decahydro-1H-cyclopropa[d]pyrrolo[1,2-a]azocin-6-yl)carbamoyl)benzo[b]thiophen-5-yl)methyl)phosphonic acid] | 0.1 to 1 | 3 to 30
N#CC1(c2ccccn2)CN(C(=O)[C@@H]2CC[C@@H]3C[C@@H]4C[C@@H]4C[C@H](NC(=O)c4cc5cc([C@@H](F)P(=O)(O)O)ccc5s4)C(=O)N32)C1 (single isomer, unassigned) [Example 356] | < 0.1 | 3 to 30
O=C(N[C@H]1C[C@H]2C[C@H]2C[C@H]2CC[C@@H](C(=O)N3CC(c4cccnc4)C3)N2C1=O)c1cc2cc(CP(=O)(O)O)ccc2s1 [Compound 22, ((2-(((3S,6S,7aR,8aS,9aR)-5-oxo-3-(3-(pyridin-3-yl)azetidine-1-carbonyl)decahydro-1H-cyclopropa[d]pyrrolo[1,2-a]azocin-6-yl)carbamoyl)benzo[b]thiophen-5-yl)methyl)phosphonic acid] | 0.1 to 1 | > 30
O=C(N[C@H]1C[C@@H]2C[C@@H]2CC2CC[C@@H](C(=O)N3CC(c4cncnc4N4CCC4)C3)N2C1=O)c1cc2cc([C@H](F)P(=O)(O)O)ccc2s1 (single isomer, unassigned) [Example 402] | < 0.1 | 0.3 to 3
O=C(N[C@H]1C[C@@H]2C[C@@H]2C[C@H]2CC[C@@H](C(=O)N3CC(C(=O)N4CC[C@@H](O)C4)C3)N2C1=O)c1cc2cc(C(F)(F)P(=O)(O)O)ccc2s1 [Compound 109, (difluoro(2-(((3S,6S,7aS,8aR,9aR)-3-(3-((R)-3-hydroxypyrrolidine-1-carbonyl)azetidine-1-carbonyl)-5-oxodecahydro-1H-cyclopropa[d]pyrrolo[1,2-a]azocin-6-yl)carbamoyl)benzo[b]thiophen-5-yl)methyl)phosphonic acid] | < 0.1 | 3 to 30
O=C(N[C@H]1C[C@@H]2C[C@@H]2C[C@H]2CC[C@@H](C(=O)N3CCOc4cccnc43)N2C1=O)c1cc2cc(C(F)P(=O)(O)O)ccc2s1 (stereo partly drawn) [Example 385, ((2-(((3S,6S,7aS,8aR,9aR)-3-(3,4-dihydro-2H-pyrido[3,2-b][1,4]oxazine-4-carbonyl)-5-oxodecahydro-1H-cyclopropa[d]pyrrolo[1,2-a]azocin-6-yl)carbamoyl)benzo[b]thiophen-5-yl)fluoromethyl)phosphonic acid] | 1 to 10 | 3 to 30
O=C(N[C@H]1C[C@@H]2C[C@@H]2C[C@H]2CC[C@@H](C(=O)N3CC(c4cnccc4N4CCOCC4)C3)N2C1=O)c1cc2cc([C@@H](F)P(=O)(O)O)ccc2s1 (single isomer, unassigned) [Example 405] | < 0.1 | 3 to 30
CC(=O)N1C[C@H](NC(=O)[C@@H]2CC[C@@H]3C[C@@H]4C[C@@H]4C[C@H](NC(=O)c4cc5cc(CP(=O)(O)O)ccc5s4)C(=O)N32)[C@@H](F)C1 [Example 244, ((2-(((3S,6S,7aR,8aS,9aR)-3-(((3S,4S)-1-acetyl-4-fluoropyrrolidin-3-yl)carbamoyl)-5-oxodecahydro-1H-cyclopropa[d]pyrrolo[1,2-a]azocin-6-yl)carbamoyl)benzo[b]thiophen-5-yl)methyl)phosphonic acid] | 1 to 10 | 3 to 30
CS(=N)(=O)CC1CN(C(=O)[C@@H]2CC[C@@H]3C[C@H]4C[C@H]4C[C@H](NC(=O)c4cc5cc(C(F)P(=O)(O)O)ccc5s4)C(=O)N32)C1 (stereo partly drawn) [Example 341, (fluoro(2-(((3S,6S,7aS,8aR,9aR)-3-(3-((S-methylsulfonimidoyl)methyl)azetidine-1-carbonyl)-5-oxodecahydro-1H-cyclopropa[d]pyrrolo[1,2-a]azocin-6-yl)carbamoyl)benzo[b]thiophen-5-yl)methyl)phosphonic acid] | < 0.1 | 3 to 30
COCC1(F)CN(c2ccncc2C2CN(C(=O)[C@@H]3CC[C@@H]4C[C@H]5C[C@H]5C[C@H](NC(=O)c5cc6cc([C@@H](F)P(=O)(O)O)ccc6s5)C(=O)N43)C2)C1 [Example 425, ((S)-fluoro(2-(((3S,6S,7aS,8aR,9aR)-3-(3-(4-(3-fluoro-3-(methoxymethyl)azetidin-1-yl)pyridin-3-yl)azetidine-1-carbonyl)-5-oxodecahydro-1H-cyclopropa[d]pyrrolo[1,2-a]azocin-6-yl)carbamoyl)benzo[b]thiophen-5-yl)methyl)phosphonic acid] | < 0.1 | > 30
CC(C(N)=O)c1cc(-c2ccccc2)ccc1NC(=O)[C@@H]1CC[C@@H]2C[C@H]3C[C@H]3C[C@H](NC(=O)c3cc4cc(C(F)(F)P(=O)(O)O)ccc4s3)C(=O)N21 (stereo partly drawn) [Compound 101] | 0.1 to 1 | 0.3 to 3
O=C(N[C@H]1C[C@H]2C[C@H]2C[C@H]2CC[C@@H](C(=O)N3CC(c4cnccc4O)C3)N2C1=O)c1cc2cc(C(F)P(=O)(O)O)ccc2s1 (stereo partly drawn) [Example 293, (fluoro(2-(((3S,6S,7aR,8aS,9aR)-3-(3-(4-hydroxypyridin-3-yl)azetidine-1-carbonyl)-5-oxodecahydro-1H-cyclopropa[d]pyrrolo[1,2-a]azocin-6-yl)carbamoyl)benzo[b]thiophen-5-yl)methyl)phosphonic acid] | < 0.1 | 0.3 to 3
